Several values for one entry are separate records, joined by “and”; a condition that tells them apart may be missing. Equal values may be shown once. Read-outs that look alike come from different tables or passages of the source. A value given as a limit tells only on which side of the number the result lay.

For one series, the system named is WT HIV-1 (IIIB). Nature of the series: microbe, parasite or virus in culture. In kind it is cell-based. Conditions: for EC50: Human immunodeficiency virus 1, IIIB, MT4, read-out: EC50 IIIB; for SI IIIB: ratio of CC50/EC50, IIIB.
Series [1] deals with HIV-1 RES056 (K103N/Y181C). Nature of the series: microbe, parasite or virus in culture. Conditions: for EC50: Human immunodeficiency virus 1, MT4, read-out: EC50 RES056; for SI RES056: ratio of CC50/EC50, RES056. It is filed as cell-based.
The test system of series [2] is HIV-1 mutant strain L100I. As to the kind of experiment: microbe, parasite or virus in culture. Conditions: Human immunodeficiency virus 1, MT4, read-out: EC50 L100I. It is filed as cell-based.
The test system of series [3] is HIV-1 mutant strain K103N. Nature of the series: microbe, parasite or virus in culture. It is filed as cell-based. Conditions: for EC50: Human immunodeficiency virus 1, MT4, read-out: EC50 K103N.
Series [4] relates to HIV-1 mutant strain Y181C. Nature of the series: microbe, parasite or virus in culture. It is filed as cell-based. Conditions: for EC50: Human immunodeficiency virus 1, MT4, read-out: EC50 Y181C.
Series [5] concerns HIV-1 mutant strain Y188L. Nature of the series: microbe, parasite or virus in culture. In kind it is cell-based. Conditions: for EC50: Human immunodeficiency virus 1, MT4, read-out: EC50 Y188L.
Series [6] concerns HIV-1 mutant strain E138K. As to the kind of experiment: microbe, parasite or virus in culture. It is filed as cell-based. Conditions: for EC50: Human immunodeficiency virus 1, MT4, read-out: EC50 E138K.
For series [7], the system named is HIV-1 double mutant strain F227L/V106A. Nature of the series: microbe, parasite or virus in culture. It is filed as cell-based. Conditions: for EC50: Human immunodeficiency virus 1, MT4, read-out: EC50 F227L/V106A.
A further series addresses recombinant WT HIV-1 RT (Human immunodeficiency virus type 1 group M subtype B, UniProt P03366). As to the kind of experiment: HIV-1 RT inhibition assay. In kind it is biochemical.
Series [8] is described as follows: Cytotoxicity in mock-infected MT-4 cells. Conditions: human.
For series [9] the following is noted: cited from earlier work.
Another series in a line: Aqueous solubility. In kind it is physicochemical.

What is called IC50 is the concentration that inhibits the measured activity by half. One may read the CC50 as the concentration giving 50% cytotoxicity. A higher CC50 goes with better tolerance by the cells. With `Cc1cc(C#N)cc(C)c1Oc1nc(NC2CCN(Cc3ccc(P(C)(C)=O)cc3)CC2)nc2ccsc12` [9a, 4-((2-((1-(4-(Dimethylphosphoryl)benzyl)piperidin-4-yl)amino)thieno[3,2-d]pyrimidin-4-yl)oxy)-3,5-dimethylbenzonitrile], the EC50 in the series on WT HIV-1 (IIIB) turned out to be 2.2 ± 0.33 nM; in series [1], 257 ± 95.2 nM; in series [2], 7.01 ± 1.76 nM; in [3] it was 2.66 ± 0.85 nM; in [4], 12.8 ± 2.62 nM; in [5], 11.3 ± 0.87 nM. In addition, the values for the EC50 in series [6] and in series [7] were 7.33 ± 1.36 nM and 21.5 ± 13.5 nM, respectively. Moreover, in the series with WT HIV-1 (IIIB), the “SI IIIB” value is on record as 97,727. In addition, the “SI RES056” value in series [1] was 837. Also, the IC50 on recombinant WT HIV-1 RT amounted to 310 ± 10 nM. For the same compound, in series [8], half-maximal cytotoxicity (CC50 at 5 days) was put at 215000 ± 1170 nM.
Regarding `CCOP(=O)(OCC)c1ccc(CN2CCC(Nc3nc(Oc4c(C)cc(C#N)cc4C)c4sccc4n3)CC2)cc1` [9c, Diethyl (4-((4-((4-(4-cyano-2,6-dimethylphenoxy)thieno[3,2-d]pyrimidin-2-yl)amino)piperidin-1-yl)methyl)phenyl)phosphonate], the EC50 in the series with WT HIV-1 (IIIB) was 6.9 ± 1.92 nM; in series [1], 445 ± 109 nM; in series [2] it was 11.5 ± 3.27 nM; in series [3] it was ≤ 4.62 nM; in series [4], 13.2 ± 5.6 nM; in series [5], 17 ± 11 nM. The EC50 in [6] turned out to be 12.3 ± 1.98 nM; in series [7] it was 14.3 ± 4.55 nM. For the same compound, the “SI IIIB” value in the series with WT HIV-1 (IIIB) is listed as 16,957. For the same compound, the “SI RES056” value in [1] is reported as 263. In addition, the concentration for half-maximal inhibition (IC50) on recombinant WT HIV-1 RT stood at 760 ± 150 nM. In series [8], this compound showed a CC50 at 5 days of 117000 ± 7750 nM.
As to `COP(=O)(OC)c1ccc(CN2CCC(Nc3nc(Oc4c(C)cc(C#N)cc4C)c4sccc4n3)CC2)cc1` [9b, Dimethyl (4-((4-((4-(4-cyano-2,6-dimethylphenoxy)thieno[3,2-d]pyrimidin-2-yl)amino)piperidin-1-yl)methyl)phenyl)phosphonate], the EC50 turned out to be 3.63 ± 1.15 nM with WT HIV-1 (IIIB); 193 ± 40.4 nM in series [1]; 10.8 ± 3.42 nM in [2]; 3.72 ± 1.27 nM in series [3]; 15.3 ± 10.1 nM in [4]; 9.95 ± 5.61 nM in series [5]. Besides, the figures for the EC50 in [6] and in series [7] were 14.9 ± 8.6 nM and 8.14 ± 1.85 nM, respectively. Further, in the series with WT HIV-1 (IIIB), the “SI IIIB” value was 15,014. The “SI RES056” value in series [1] is 282. The IC50 on recombinant WT HIV-1 RT turned out to be 350 ± 50 nM. The compound further had a CC50 at 5 days in series [8] of 54500 ± 1290 nM.
In general, Aqueous solubility refers to how much of the substance goes into solution per volume. On to `Cc1cc(C#N)cc(C)c1Oc1nc(Nc2ccc(C#N)cc2)nc(N)c1Br` [ETR, etravirine, reference compound], for which the EC50 came to 2.81 ± 1.08 nM in the series on WT HIV-1 (IIIB); 83.3 ± 21.1 nM in [1]; 8.39 ± 3.4 nM in series [2]; 3.04 ± 0.9 nM in series [3]; 17.8 ± 5.74 nM in [4]; 22.1 ± 6.33 nM in series [5]. The EC50 in [6] was 10.5 ± 2.49 nM; in series [7] it was 18.2 ± 12.4 nM. In addition, the values for the Aqueous solubility in series [9] (pH = 2.0), in series [9] (pH = 7.0) and in series [9] (pH = 7.4) were 127 µg/mL, <<1 μg/mL and <1 µg/mL, respectively. Besides, the CC50 at 5 days in [8] was > 4590 nM.
Take `Cc1cc(/C=C/C#N)cc(C)c1Oc1nc(NC2CCN(Cc3ccc(P(C)(C)=O)cc3)CC2)nc2ccsc12` [15a, (E)-3-(4-((2-((1-(4-(Dimethylphosphoryl)benzyl)piperidin-4-yl)amino)thieno[3,2-d]pyrimidin-4-yl)oxy)-3,5-dimethylphenyl)acrylonitrile]: in the series with WT HIV-1 (IIIB), the “Fold more effective than ETR, WT” value was 1.6 fold and the EC50 amounted to 1.75 ± 0.64 nM. For the same compound, in series [1], the “Fold more effective than ETR, RES056” value turned out to be 5.3 fold and the EC50 was determined as 15.8 ± 2.62 nM. Further, in series [2], the EC50 stood at 2.84 ± 0.09 nM. Moreover, in [3], the “Fold more effective than ETR, K103N” value was 2.4 fold and ~2.39 fold; the EC50 was 1.27 ± 0.68 nM. In addition, in series [4], the “Fold more effective than ETR, Y181C” value was 3.3 fold and ~3.31 fold; the EC50 turned out to be 5.38 ± 1.61 nM. Also, in series [5], the “Fold higher activity than RPV, Y188L” value is reported as “about 9.97 fold”; the “Fold more effective than ETR, Y188L” value is on record as ~2.78 fold; the EC50 turned out to be 7.96 ± 3.89 nM. Moreover, in series [6], the “Fold more effective than ETR, E138K” value is ~2.45 fold and the EC50 turned out to be 4.28 ± 1.04 nM. Further, in series [7], the “Fold higher activity than RPV, F227L/V106A” value is ~21.7 fold; the “Fold more effective than ETR, F227L/V106A” value was 4.8 fold and ~4.84 fold; the EC50 turned out to be 3.76 ± 0.46 nM. Also, on recombinant WT HIV-1 RT, the IC50 amounted to 340 ± 90 nM. In the series “Aqueous solubility” (pH = 2.0), this compound came in with an Aqueous solubility of 283 µg/mL. Besides, the Aqueous solubility in the series “Aqueous solubility” (pH = 7.4) was determined as 27.6 µg/mL. It took 117000 ± 23900 nM to reach half-maximal cytotoxicity in series [8] (CC50 at 5 days).
